Laboratory results: US7795226B2, “Control of radiation injury” (Biotempt B.V., priority 2006, dated 2010)

Legend:
[1] = system: mice after Whole Body Irradiation; assay: Dose Reduction Factor (DRF) test, escalating WBI doses; assay type: in vivo; settings: for Percent alive at day 30 / Percent dead at day 30 / The absolute number of animals alive at 30 days post WBI: 10 mg/kg s.c. single dose at day 3
Procedure: Escalating doses of Whole Body Irradiation (WBI), with one single exposure given to any particular cohort, and the exposure dose going progressively higher, for each subsequent cohort. A single dose of peptide EA-230 (AQGV (SEQ ID NO:120)) was administered subcutaneously, but with treatment delayed until three days (72 hours) after the WBI. The test is called the Dose Reduction Factor (“DRF”), which is defined as ratio between the LD50 of the treated group to the LD50 of the control group. The LD50 refers to that dose which is lethal to 50% of the animals tested. An acceptable DRF value is 1.20.
In this example we report on escalating dose studies of Whole Body Irradiation (WBI) with one single exposure given to any particular cohort, and the exposure dose going progressively higher for each subsequent cohort. A single dose of peptide AQGV (SEO ID NO:120) (10 mg/kg) was administered subcutaneously, but with treatment delayed until three days (72 hours) after the WBI. The test is called the Dose Reduction Factor (“DRF”), which is defined as ratio between the LD50 of the treated group to the LD50 of the control group. The LD50 refers to that dose which is lethal to 50% of the animals tested.
An acceptable DRF ratio is a factor of at least 1.10; but preferred is at least 1.20 or even at least 1.25.

[2] = system: C57B1/6 mice after Whole Body Irradiation; assay: Whole Body Irradiation 8.6 Gy, treatment from three hours after WBI; assay type: in vivo
Procedure: “WBI” stands for Whole Body Irradiation. Radiation damage protection in vivo was assessed after WBI (6.5 to 9.8 Gy, Philips MG 30 at 81 cGy/min) on anesthetized C57B1/6 mice, and survival differences were measured by Kaplan-Meirer analysis. All groups of mice got the first injection with peptide or vehicle (control animals) three hours after the WBI. The group that got a placebo injection experienced 80% mortality, as predicted in this model. The dose of radiation of 8.6 Gray (=8.6 Gy) is known, in this species, to cause about an 80% mortality, so it is called the LD80 (lethal dose for 80%). The deaths started around Day 10, which is typical for what happens in WBI to animals or humans. By around Day 10, the gut lining is so damaged and leaky from the radiation that bacteria get into the circulation and cause gastrointestinal syndrome, and the bone marrow is so damaged that there is an insufficient number of white blood cells to fight the infection (“Bone Marrow Syndrome”), and death ensues. The group with “x” as the symbol got the first injection IV, and the second injection subcutaneously (SC) three hours after that first injection. 100% of these animals survived. […] To an outside observer, they would look like perfectly normal mice. The group with the triangle symbol got its first injection of the peptide via the SC route. Then it got additional SC injections every 48 hours, for a total of three doses (in addition to the first dose), meaning, on Day 3, Day 5, and Day 7. […] The group with the square symbol was identical in procedures to the group with the triangle symbol, except that the 48 hour SC injections continued on until a total of six doses had been injected (in addition to the first dose). So the dosing continued on until Day 13. […] When the animals got lower-level treatment (SC only), if the treatment was prolonged until the second week, here again, there was complete protection.
The group that got a placebo injection experienced 80% mortality, as predicted in this model. The dose of radiation given (8.6 Gray =8.6 Gy) is known, in this species, to cause about an 80% mortality, so it is called the LD80 (lethal dose for 80%). The deaths starting around Day 10, which is typical for what happens in WBI to animals or humans. By around Day 10, the gut lining is so damaged and leaky from the radiation that bacteria get into the circulation and cause sepsis because of Gastrointestinal (GI) Syndrome, and the bone marrow is so damaged that there is an insufficient number of white blood cells to fight the infection (“Bone Marrow Syndrome”), and death ensues.
A first group of peptide-treated mice (group with “x” as the symbol in FIG. 1) got the first injection with AQGV (SEO ID NO:120) IV, and the second injection subcutaneously (SC) three hours after that first injection.
A second group of mice got its first injection of the peptide via the SC route. Then it got additional SC injections every 48 hours, for a total of three doses (in addition to the first dose), meaning, on Day 3, Day 5, and Day 7.
The third group of mice was identical in procedures to the group with the second group, except that the q48 hour SC injections continued on until a total of six doses had been injected (in addition to the first dose). So the dosing continued on until Day 13.

[3] = system: LPS-induced septic shock in mice; settings: single treatment after high dose LPS injection; cited from earlier work
[4] = first SC injection three hours after WBI, then SC every 48 hours, six additional doses
[5] = first injection IV three hours after WBI, second SC three hours later

AQGV
Dose Reduction Factor (factor by which the radiation dose has to be increased to kill 50% of the animals) ([1]; 10 mg/kg s.c. single dose 72 hours after WBI, LD50 treated / LD50 control): 1.25 | radiation dose that kills 50% of the treated animals (LD50) ([1]; 10 mg/kg s.c. single dose 72 hours after WBI, day 30): ~10.4 Gy | Percent alive at day 30 ([1]; WBI 8.6 Gy): 100% | Percent dead at day 30 ([1]; WBI 8.6 Gy): 0% | The absolute number of animals alive at 30 days post WBI ([1]; WBI 8.6 Gy): 20 | Percent alive at day 30 ([1]; WBI 9.2 Gy): 100% | Percent dead at day 30 ([1]; WBI 9.2 Gy): 0% | The absolute number of animals alive at 30 days post WBI ([1]; WBI 9.2 Gy): 10 | Percent alive at day 30 ([1]; WBI 9.8 Gy): 100% | Percent dead at day 30 ([1]; WBI 9.8 Gy): 0% | The absolute number of animals alive at 30 days post WBI ([1]; WBI 9.8 Gy): 10 | Percent alive at day 30 ([1]; WBI 10.4 Gy): 40% | Percent dead at day 30 ([1]; WBI 10.4 Gy): 60% | The absolute number of animals alive at 30 days post WBI ([1]; WBI 10.4 Gy): 4 | Percent alive at day 30 ([1]; WBI 11.0 Gy): 0% | Percent dead at day 30 ([1]; WBI 11.0 Gy): 100% | The absolute number of animals alive at 30 days post WBI ([1]; WBI 11.0 Gy): 0 | mortality after WBI (in words) [2, 4]: no mortality whatsoever | signs of sickness after WBI (in words) [2, 4]: showed no signs of sickness | mortality after WBI (in words) ([2]; first SC injection three hours after WBI, then SC every 48 hours, three additional doses): only one of these animals died | signs of sickness after WBI (in words) [2, 5]: did not show any signs of sickness at all | survival after WBI [2, 5]: 100%

VLPALP (hexamer peptide)
septic shock in mice (in words) [3]: inhibited septic shock in mice
